Results on three compounds are retold here after patent publication US9061981B2, “Diphenyl substituted cyclohexane derivatives, useful as modulators of the estrogen receptors beta” (Acadia Pharmaceuticals Inc., priority 2011, dated 2015).

Series [1] addresses T1, ERβ (Homo sapiens, UniProt Q92731). As to the kind of experiment: R-SAT functional assay, ERβ. In kind it is cell-based. The arrangement: expressed in transfected cells; host or cells: transient transfection.
Series [2] addresses T1, ERβ. As to the kind of experiment: Competitive 3H-estradiol binding assay, ERβ. The arrangement: expressed in transfected cells; host or cells: HEK293 cells, transient transfection. Here is the method: Cells were then harvested by scraping in ice-cold PBS and subsequently lysed using a cold buffer containing 10 mM Tris pH 7.4, 1 mM EDTA, 1 mM DTT before being subjected to polytron twice for 10 seconds. Cytosolic extracts were isolated by centrifugation at 15000 g for 30 minutes at 4° C. Competitive binding of the test compounds or the estradiol control was performed on 20 μL extract by overnight incubation at 4° C. in a total volume of 100 μL containing 1 nM ^3H-estradiol (Perkin Elmer, Boston, Mass.). The bound fraction was separated from the unbound one by the addition of 100 μL of Dextran coated charcoal, incubated for 10 minutes and subsequent centrifugation at 1000 rpm for 10 minutes. Samples (100 μL per sample) were then analyzed by liquid scintillation. Data was then analyzed using the curve fitting software GraphPad Prism.

Series [3] has as its target T1, ERβ. Nature of the series: Luciferase reporter gene assay (3*ERE) in HEK293 cells, ERβ. It is filed as cell-based. The arrangement: expressed in transfected cells; host or cells: HEK293 cells, transient transfection. The settings on record: for Emax: HEK293, 48 h, read-out: Luciferase Erβ % Eff. As to the method:
HEK293 cells were grown to 70% confluency in DMEM containing 10% calf serum (Hyclone) prior to transfection. On the day of transfection (day 1), expression vectors for ERα or ERβ were cotransfected along a construct containing a synthetic 3*ERE upstream of the luciferase gene (Panomics), using Polyfect (Qiagen) per manufacturer's recommendations (ERE being estrogen response element). Sixteen hours post-transfection, cells were incubated in serum free DMEM. […] Cells extracts were then obtained by lyzing and the Luciferase activity measured, all of these steps performed using a commercially available kit (Promega).

The nature of series [4]: Non-specific binding assessment across tissue-free inserts. As to conditions: tissue-free insert, DPBS; for recovery at 120 min, 1 μM: tissue-free Millipore Millicell culture plate inserts; for Papp at 120 min, 1 μM: read-out: apparent permeability coefficient (Papp) through cell-free insert. In kind it is in vitro ADME. As to the method:
Non-specific binding assessment (NSB) was conducted in a tissue-free plate containing Millipore Millicell culture plate inserts that were the same ones that were used in the permeation study across the culture tissues. Each of the tested compounds was dosed at 1 μM with DPBS buffer. Sampling time for the receiver chambers was 120 minutes after dosing, while the donor sides were sampled at 0 and 120 minutes after dosing. The NSB assessments consisted of the permeation rates across tissue-free inserts and the percent recovery by calculating the mass balance of the test campounds at the end of the experiment. The recovery assessment was used to assess the non-specific binding property of the tested compounds to the assay apparatus.

Series [5] can be described thus: Unidirectional permeability across MatTek EpiOral buccal tissue. In kind it is in vitro ADME, human. Here is the method:
EpiOral→tissues plated in 24-well plates were obtained from MatTek Corporation (Ashland, Mass., USA). The assay buffer was Dulbeccos' Phosphate Buffered Saline (DPBS) without Ca & Mg chloride, pH 7.4. Each test compound was co-dosed with the two control compounds. Targeting dosing concentrations were 10 μM for each test compound and 100 μM for the two control compounds. Prior to the permeability assay onset, the tissues were preequilibrated in a pre-warmed EpiOral assay medium for one hour at 37° C. in a 5% CO2 incubator. The EpiOral assay medium was aspirated after the pre-equilibration, and the tissues were washed twice with the DPBS buffer. The receiver chambers were filled with 0.75 mL of the DPBS buffer, while the donor chambers received 0.4 mL of the dosing solutions. The assay plates were placed at 37° C. in a 5% CO2 incubator. The receiver samples (200 μL) were collected at 30, 60, and 120 minutes, and replaced with an equal volume of fresh pre-warmed receiver buffer (except for the last time point of 120 minutes). The donor sides were sampled at 0 and 120 minutes. The test compounds were then analyzed using LC-MS/MS.

In series [6] the target is T1, ERβ. As to the kind of experiment: R-SAT functional assay, ERβ. In kind it is cell-based. The arrangement: expressed in transfected cells; host or cells: transient transfection. The settings on record: NIH3T3, read-out: R-SAT Erβ % Eff. The text has this: R-SAT® (Receptor Selection and Amplification Technology) is a cell-based functional assay that allows one to monitor receptor-dependent proliferative responses and has been described elsewhere. […] This process is achieved by partial cellular transformation via loss of contact inhibition and growth factor dependency. Monitoring is achieved by transfecting the cells with a β-galactosidase reporter gene vector whose expression is under a constitutively active promoter. Briefly, NIH-3T3 fibroblasts were plated overnight in 96-wells plates in DMEM 10% calf serum (Hyclone) and grown to 60-70% confluency prior to transfection. Transient transfections were performed using Polyfect (Qiagen) according to manufacturer's instructions. Typically a transfection mix would consist of the receptor and the β-galactosidase expression vectors. Sixteen hours post-transfection, cells were incubated with different doses of ligand in DMEM containing 30% Ultraculture (Hyclone) and 0.4% calf serum (Hyclone) to generate a dose response curve. […] Plates were read using a microplate reader at 420 nm. Data from R-SAT® assays were fit to the equation: r=A+B(x/(x+c)), where A=minimum response, B=maximum response minus minimum response, c=EC50, r=response, and x=concentration of ligand. Curves were generated using the curve fitting softwares Excel Fit and GraphPad Prism (San Diego, Calif.). Luciferase Reporter Gene Assay

Series [7] relates to nigrostriatal dopamine neurons. Nature of the series: Tyrosine hydroxylase immunofluorescence in SN and STR after 6OHDA lesion. The settings on record: 6OHDA rats, once daily 7 days sc; 10 mg/kg (estradiol 100 μg/kg). In kind it is in vivo, Male rats. Here is the method:
Male rats received baseline assessment of weight, motor function (spontaneous locomotor behavior, rotorod performance) and sensorimotor gating (prepulse inhibition). Subjects were assigned to treatment conditions to equalize performance on all these measures. Subjects were then treated once daily for 7 days with either sesame oil vehicle, estradiol (100 μg/kg sc), Comparative substance 131 (10 mg/kg sc), Compound 8 (10 mg/kg sc), Comparative substance 623 (10 mg/kg sc) or Comparative substance 957 (10 mg/kg sc). On the second day of treatment, subjects received bilateral sham or 6OHDA lesions (8 μg in 4 μl) of the substantia nigra (A/P−5.0 mm, M/L±1.6 mm, D/V−8.2 mm) following the atlas of Paxinos and Watson (Paxinos, G., Watson, C., The Rat Brain in Stereotaxic Coordinates, Fourth Edition, New York: Academic Press, Spiral Bound, 1998). Behavioral assessments of motor function (spontaneous locomotion, rotorod and traversing a challenging beam), cognition (novel object recognition) and sensorimotor gating (prepulse inhibition) began after the final day of treatment. Following behavioral assessment, SN and striatal tissue were collected in order to determine the intactness of the nigrostriatal dopamine system.
Comparative compound 131 and Compound 8 were compared with estradiol for their ability to protect nigrostriatal dopamine neurons as measured by tyrosine hydroxylase (TH) immunohistochemistry in the SN and striatum (STR).

T1 sequence (Q92731 whole entry, species assumed): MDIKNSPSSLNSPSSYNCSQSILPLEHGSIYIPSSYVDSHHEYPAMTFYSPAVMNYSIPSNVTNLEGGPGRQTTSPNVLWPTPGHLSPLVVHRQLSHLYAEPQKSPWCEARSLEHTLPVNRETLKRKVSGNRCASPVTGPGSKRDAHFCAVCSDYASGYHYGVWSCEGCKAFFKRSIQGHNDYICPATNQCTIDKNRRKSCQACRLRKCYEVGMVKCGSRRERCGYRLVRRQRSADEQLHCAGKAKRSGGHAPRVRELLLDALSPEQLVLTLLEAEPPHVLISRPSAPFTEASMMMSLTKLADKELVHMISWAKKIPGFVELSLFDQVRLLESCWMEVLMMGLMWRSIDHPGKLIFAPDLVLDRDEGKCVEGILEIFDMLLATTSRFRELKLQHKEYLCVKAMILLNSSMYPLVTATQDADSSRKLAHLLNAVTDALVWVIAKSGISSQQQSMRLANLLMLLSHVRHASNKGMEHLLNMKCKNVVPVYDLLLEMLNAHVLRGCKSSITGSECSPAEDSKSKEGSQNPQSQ

Regarding `Oc1ccc(C2(c3ccccc3F)CCC(F)(F)CC2)cc1` [Compound 8, 4-(4,4-Difluoro-1-(2-fluorophenyl)cyclohexyl)phenol], on ERβ [1], it took 1.26 nM to reach a half-maximal effect (EC50). Moreover, the Ki on ERβ [2] is 6.31 nM. Besides, on ERβ [3], the EC50 was 0.631 nM and the Emax was found to be 96%. In series [4], the recovery at 120 min, 1 μM turned out to be 57% and the Papp at 120 min, 1 μM came to 19.8 ×10⁻⁶ cm/s. The “permeability classification in MatTek EpiOral buccal tissue” value (shortened to “permeability classification”) in series [5] is “highly permeable”. Further, the Emax at ERβ [6] came out at 69%. Also, in series [7], the “percent immunopositive and mean pixel intensity of TH immunofluorescence in the STR” value is “increase in percentage of the image that was immunopositive and increased mean pixel intensity”; the “percent immunopositive, mean cell size and mean pixel intensity of TH immunofluorescence in the SN” value (“percent immunopositive … in the SN” for short) was “improved percent immunopositive, mean cell size and mean pixel intensity”; the “tyrosine hydroxylase positive cell number in the SN” value is listed as “prevented the reduction in cell number”.
`Oc1ccc(C2(c3cccc(F)c3Cl)CCCCC2)cc1` [Compound 623] showed an EC50 at ERβ [1] of 6.31 nM. For the same compound, affinity on ERβ [2] was put at a Ki of 6.31 nM. In addition, at ERβ [3], the EC50 was 5.01 nM and the Emax was determined as 99%. Moreover, in series [4], the recovery at 120 min, 1 μM was 22% and the Papp at 120 min, 1 μM turned out to be 1.17 ×10⁻⁶ cm/s. Also, the “permeability classification” value in series [5] is recorded as “low permeability”. The Emax on ERβ [6] stood at 89%. Further, in series [7], the “percent immunopositive … in the SN” value was “improved percent immunopositive, mean cell size and mean pixel intensity”; the “tyrosine hydroxylase positive cell number in the SN” value is “prevented the reduction in cell number”.
As to `Oc1ccc(C2(c3ccccc3Cl)CCCCC2)cc1F` [Compound 957], on ERβ [1], the EC50 was 1.58 nM. For the same compound, on ERβ [2], the Ki was 15.8 nM. Besides, at ERβ [3], the EC50 is 1.26 nM and the Emax was found to be 62%. In series [4], the recovery at 120 min, 1 μM worked out at 18% and the Papp at 120 min, 1 μM came out at 0.881 ×10⁻⁶ cm/s. In addition, the “permeability classification” value in series [5] is listed as “low permeability”. Besides, at ERβ [6], the Emax worked out at 94%. Besides, in series [7], the “percent immunopositive … in the SN” value was “improved percent immunopositive, mean cell size and mean pixel intensity”; the “tyrosine hydroxylase positive cell number in the SN” value is reported as “prevented the reduction in cell number”.

The EC50 is the concentration giving half of the maximal effect. As a reminder, the Ki is a measure of affinity in units of concentration, obtained from inhibition or displacement. The low end stands for tighter binding, the high end for weaker binding. What is called Papp is a coefficient for how fast a substance crosses the barrier.
